# Patent US9550792B2, “Polycyclic substituted pyrazole kinase activity inhibitors and use thereof” (priority 2013, dated 2017)
# “And” between values parts separate entries of the source, which are not always exact repeats. Equal values may be shown once. Read-outs that look alike come from different tables or passages of the source.
# Tests used:
# [1] = Pharmacokinetics after single oral dose in rats; assay type: in vivo, Wistar rat
# Description: (§1) 300 μL blood collected from the rat was mixed with 30 μL methanol and 2 mL ethyl acetate. The samples were vortexed for 3 min and centrifuged at 4000 rpm for 15 min. The supernatant was introduced into another centrifugal tube. The lower layer was repeatedly extracted and then the supernatants were combined and dried with nitrogen gas. After redissolution with 150 μL methanol, they were filtered by 0.22 μm membrane and then subjected to analysis with a injection volume of 20 μL.
# An amount of compound was taken accurately to prepare CMC-Na aqueous solution containing 3 mg/mL of drug. 12 healthy male Wister rats were randomly assigned to two groups, each group including 6 rats. The first group was administrated orally compound 1. The second group was administrated orally compound 2. The doses were both 30 mg/kg (corresponding to 2 mL for each rat). The rats were fasting for 12 h before administration and free access to water. 0.6 mL blood samples were collected at 0.5, 1, 1.5, 2, 2.5, 3, 5, 8, 12 and 24 h after drug administration from the venous sinuses and added into EP tubes which were rinsed with heparin sodium previously. The samples were centrifuged at 4,000 r/min for 15 min and the upper plasma were obtained. 300 μL plasma was subjected to analysis and the chromatogram and peak area were recorded. The plasma concentrations of compounds 1 and 2 were calculated to give average concentration-time curve.
# DAS 2.0 program was used to analyze plasma concentration vs. time data after s single oral dose (Table 6, 7). Fitting and the AIC methods were used to determine the model. The analysis was based on the principle that the larger fitting and the smaller AIC, the better model. The oral administration was consistent with the two-compartment model. The statistical distance parameter is used to compare the 2 compounds for the pharmacokinetic parameters.
# Plasma stability = assay type: in vitro ADME; conditions: rat plasma
# Description: as §1
# […] The samples were prepared according to the method of 3.1. 20 μL were introduced into the HPLC system and the peak area is recorded for analysis to determine the stability of compound 1 and 2 in plasma.
# [2] = male, Wistar, plasma, rat, oral 30 mg/kg
smiles,measurement,setting,value
"O=C(Nc1ccc(CN2CCOCC2)cc1)c1n[nH]cc1Nc1ncnc2sccc12 [Compound I-2, 4-(4-thieno[2,3-d]pyrimidinylamino)-N-(4-((4-morpholinyl)methyl)phenyl)-1H-3-pyrazolecarboxamide]",Cmax,[1]; [2],265 ± 52.9 ng/mL
same,Tmax,[1]; [2],14 ± 5.29 h
same,half-life,[1]; [2],14.7 ± 4.23 h
same,AUC(0-t),"[1]; male, Wistar, plasma, rat, oral 30 mg/kg, read-out: AUC 0-24",4350 ± 1300 ng·h/mL
same,MRT last,"[1]; male, Wistar, plasma, rat, oral 30 mg/kg, read-out: MRT 0-24",13.8 ± 1.29 h
same,concentration at 0.5 h,"[1]; male, Wistar, rat, plasma, po, 30 mg/kg, mean of rats, oral 30 mg/kg, time 0.5 h, read-out: Plasma concentration, mean",50.8 ng/mL
same,concentration at 1 h,"[1]; male, Wistar, rat, plasma, po, 30 mg/kg, mean of rats, oral 30 mg/kg, time 1 h, read-out: Plasma concentration, mean",85.3 ng/mL
same,concentration at 2 h,"[1]; male, Wistar, rat, plasma, po, 30 mg/kg, mean of rats, oral 30 mg/kg, time 2 h, read-out: Plasma concentration, mean",53.2 ng/mL
same,concentration at 2.5 h,"[1]; male, Wistar, rat, plasma, po, 30 mg/kg, mean of rats, oral 30 mg/kg, time 2.5 h, read-out: Plasma concentration, mean",57.6 ng/mL
same,concentration at 3 h,"[1]; male, Wistar, rat, plasma, po, 30 mg/kg, mean of rats, oral 30 mg/kg, time 3 h",64.5 ng/mL
same,concentration at 5 h,"[1]; male, Wistar, rat, plasma, po, 30 mg/kg, mean of rats, oral 30 mg/kg, time 5 h",122 ng/mL
same,concentration at 8 h,"[1]; male, Wistar, rat, plasma, po, 30 mg/kg, mean of rats, oral 30 mg/kg, time 8 h, read-out: Plasma concentration, mean",162 ng/mL
same,concentration at 12 h,"[1]; male, Wistar, rat, plasma, po, 30 mg/kg, mean of rats, oral 30 mg/kg, time 12 h, read-out: Plasma concentration, mean",264 ng/mL
same,concentration at 24 h,"[1]; male, Wistar, rat, plasma, po, 30 mg/kg, mean of rats, oral 30 mg/kg, time 24 h",157 ng/mL
same,concentration at 2.5 h,"[1]; male, Wistar, rat, plasma, po, 30 mg/kg, rat No. 1-6, oral 30 mg/kg, time 2.5 h, read-out: Plasma concentration, individual rats",72.9 ng/mL
same,concentration at 12 h,"[1]; male, Wistar, rat, plasma, po, 30 mg/kg, rat No. 1-6, oral 30 mg/kg, time 12 h, read-out: Plasma concentration, individual rats",253 ng/mL
same,"Plasma concentration, individual rats","[1]; rat No. 1-6, oral 30 mg/kg, time 0.5 h, 30 mg/kg",29.26 ng*ml/1 and 123.49 ng*ml/1 and 25.98 ng*ml/1 and 24.36 ng*ml/1
same,"Plasma concentration, individual rats","[1]; rat No. 1-6, oral 30 mg/kg, time 1 h, 30 mg/kg",208.71 ng*ml/1 and 28.68 ng*ml/1 and 18.66 ng*ml/1
same,"Plasma concentration, individual rats","[1]; rat No. 1-6, oral 30 mg/kg, time 2 h, 30 mg/kg",53.04 ng*ml/1 and 88.44 ng*ml/1 and 37.16 ng*ml/1 and 47.57 ng*ml/1 and 47.03 ng*ml/1 and 46.08 ng*ml/1
same,"Plasma concentration, individual rats","[1]; rat No. 1-6, oral 30 mg/kg, time 2.5 h, 30 mg/kg",74.79 ng*ml/1 and 57.6 ng*ml/1 and 39.48 ng*ml/1 and 49.89 ng*ml/1 and 51.04 ng*ml/1
same,"Plasma concentration, individual rats","[1]; rat No. 1-6, oral 30 mg/kg, time 3 h, 30 mg/kg",81.11 ng*ml/1 and 87.89 ng*ml/1 and 57.21 ng*ml/1 and 41.79 ng*ml/1 and 65.08 ng*ml/1 and 53.93 ng*ml/1
same,"Plasma concentration, individual rats","[1]; rat No. 1-6, oral 30 mg/kg, time 5 h, 30 mg/kg",124.06 ng*ml/1 and 272.93 ng*ml/1 and 86.12 ng*ml/1 and 78.03 ng*ml/1 and 94.32 ng*ml/1 and 76.64 ng*ml/1
same,"Plasma concentration, individual rats","[1]; rat No. 1-6, oral 30 mg/kg, time 8 h, 30 mg/kg",196.61 ng*ml/1 and 263.95 ng*ml/1 and 119.66 ng*ml/1 and 82.66 ng*ml/1 and 121.59 ng*ml/1 and 186.27 ng*ml/1
same,"Plasma concentration, individual rats","[1]; rat No. 1-6, oral 30 mg/kg, time 12 h, 30 mg/kg",345.56 ng*ml/1 and 229.22 ng*ml/1 and 256.32 ng*ml/1 and 213.94 ng*ml/1 and 286.97 ng*ml/1
same,"Plasma concentration, individual rats","[1]; rat No. 1-6, oral 30 mg/kg, time 24 h, 30 mg/kg",198.92 ng*ml/1 and 97.83 ng*ml/1 and 209.56 ng*ml/1 and 221.75 ng*ml/1 and 74.79 ng*ml/1 and 138.91 ng*ml/1
same,pharmacokinetic parameters (in words),"[1]; rat, oral 30 mg/kg",acceptable
same,melting point,,262 to 265 °C
same,plasma stability in 24 h (in words),Plasma stability; 24 h,good plasma stability
same,Plasma stability (HPLC reading),Plasma stability; Time 0 h,2.36
same,Plasma stability (HPLC reading),Plasma stability; Time 1 h,2.34
same,Plasma stability (HPLC reading),Plasma stability; Time 2 h,2.29
same,Plasma stability (HPLC reading),Plasma stability; Time 3 h,2.21
same,Plasma stability (HPLC reading),Plasma stability; Time 5 h,2.16
same,Plasma stability (HPLC reading),Plasma stability; Time 8 h,2.11
same,Plasma stability (HPLC reading),Plasma stability; Time 12 h,1.97
same,Plasma stability (HPLC reading),Plasma stability; Time 24 h,1.85
